Measurements as given in PubChem BioAssay AID330 (DTP/NCI, 2004).
“And” between values parts separate entries of the source, which are not always exact repeats. Equal values may be shown once. Inconclusive results and toxic doses are left out. The calls were made as follows: active = survival T/C of 150% or more; inactive = T/C below 125% in these data.

Test system: P388 leukemia ip, CD2F1 mice, survival T/C
Assay: NCI In Vivo Anticancer Drug Screen. Data for tumor model P388 Leukemia (intraperitoneal) in CD2F1 (CDF1) mice
Conditions: endpoint: median survival time, higher = longer survival
Procedure, shortened: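 Mice carrying the transplanted tumor received test compound or vehicle. Survival was recorded in each group, and the value is the treated-group measurement divided by that of the vehicle-treated control group.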

[1] = dose: 100.0 mg/kg/injection, schedule: Q01DX001 (ip), vehicle: other
[2] = dose: 200.0 mg/kg/injection, schedule: Q01DX001 (ip), vehicle: other
[3] = dose: 400.0 mg/kg/injection, schedule: Q01DX001 (ip), vehicle: other
[4] = dose: 100.0 mg/kg/injection, schedule: Q04DX003 (ip), vehicle: saline
[5] = dose: 200.0 mg/kg/injection, schedule: Q04DX003 (ip), vehicle: saline
[6] = dose: 400.0 mg/kg/injection, schedule: Q04DX003 (ip), vehicle: saline
[7] = dose: 50.0 mg/kg/injection, schedule: Q01DX009 (ip), vehicle: saline with Tween-80
[8] = dose: 100.0 mg/kg/injection, schedule: Q01DX009 (ip), vehicle: saline with Tween-80
[9] = dose: 1.56 mg/kg/injection, schedule: Q01DX005 (ip), vehicle: Klucel (hydroxypropylcellulose) (HPC)
[10] = dose: 3.12 mg/kg/injection, schedule: Q01DX005 (ip), vehicle: Klucel (hydroxypropylcellulose) (HPC)
[11] = dose: 6.25 mg/kg/injection, schedule: Q01DX005 (ip), vehicle: Klucel (hydroxypropylcellulose) (HPC)
[12] = dose: 50.0 mg/kg/injection, schedule: Q01DX005 (ip), vehicle: saline with Tween-80
[13] = dose: 100.0 mg/kg/injection, schedule: Q01DX005 (ip), vehicle: saline with Tween-80
[14] = dose: 200.0 mg/kg/injection, schedule: Q01DX005 (ip), vehicle: saline with Tween-80
[15] = dose: 200.0 mg/kg/injection, schedule: Q01DX009 (ip), vehicle: saline
[16] = dose: 50.0 mg/kg/injection, schedule: Q01DX005 (ip), vehicle: Klucel (hydroxypropylcellulose) (HPC)
[17] = dose: 100.0 mg/kg/injection, schedule: Q01DX005 (ip), vehicle: Klucel (hydroxypropylcellulose) (HPC)

Measured: T/C

CCC1=CC2CC(c3cc4c(cc3OC)N(C)C3C(O)(C(=O)NC)C(OC(C)=O)C5(CC)C=CCN6CCC43C65)c3[nH]c4ccccc4c3CCN(C1)C2 (stereo unspecified)
inactive: dose: 0.06 mg/kg/injection, schedule: Q01DX009 (ip), vehicle: water 101 % of control | dose: 0.13 mg/kg/injection, schedule: Q01DX009 (ip), vehicle: water 101 % of control | dose: 0.25 mg/kg/injection, schedule: Q01DX009 (ip), vehicle: water 95 % of control | dose: 0.5 mg/kg/injection, schedule: Q01DX009 (ip), vehicle: water 89 % of control | dose: 1.0 mg/kg/injection, schedule: Q01DX009 (ip), vehicle: water 94 % of control | dose: 2.0 mg/kg/injection, schedule: Q01DX001 (ip), vehicle: water 103 % of control | dose: 2.0 mg/kg/injection, schedule: Q01DX009 (ip), vehicle: water 97 % of control | dose: 4.0 mg/kg/injection, schedule: Q01DX001 (ip), vehicle: water 99 % of control | dose: 8.0 mg/kg/injection, schedule: Q01DX001 (ip), vehicle: water 98 % of control | dose: 16.0 mg/kg/injection, schedule: Q01DX001 (ip), vehicle: water 94 % of control | dose: 25.0 mg/kg/injection, schedule: Q01DX001 (ip), vehicle: other 91 % of control | dose: 32.0 mg/kg/injection, schedule: Q01DX001 (ip), vehicle: water 100 % of control | [1] 91 % of control | [2] 94 % of control | [3] 94 % of control

Cc1ncc([N+](=O)[O-])n1CCSC(N)=O
inactive: dose: 50.0 mg/kg/injection, schedule: Q04DX003 (ip), vehicle: saline 102 % of control and 105 % of control | [4] 102 % of control and 114 % of control | [5] 100 % of control and 114 % of control | [6] 100 % of control and 120 % of control

O=Cc1c[nH]c2ccc(Br)cc12
inactive: [1] 100 % of control | [2] 90 % of control | [3] 100 % of control

CCOC(=O)/C(=N/NS(=O)(=O)c1c(C)cc(C)cc1C)c1ccco1
inactive: [7] 113 % of control | [8] 106 % of control | dose: 200.0 mg/kg/injection, schedule: Q01DX009 (ip), vehicle: saline with Tween-80 104 % of control

CCCCCCCCCCCC(=O)/C=C/c1ccc(Cl)c(Cl)c1
inactive: dose: 50.0 mg/kg/injection, schedule: Q01DX009 (ip), vehicle: Klucel (hydroxypropylcellulose) (HPC) 102 % of control | dose: 100.0 mg/kg/injection, schedule: Q01DX009 (ip), vehicle: Klucel (hydroxypropylcellulose) (HPC) 90 % of control

CN1C2=NCCN2S(=O)(=O)c2ccccc21
inactive: dose: 100.0 mg/kg/injection, schedule: Q01DX001 (ip), vehicle: saline with Tween-80 101 % of control | dose: 200.0 mg/kg/injection, schedule: Q01DX001 (ip), vehicle: saline with Tween-80 110 % of control | dose: 400.0 mg/kg/injection, schedule: Q01DX001 (ip), vehicle: saline with Tween-80 92 % of control

CC(C)COC(=O)N1c2ccccc2C=CC1OCC(C)C (stereo unspecified)
inactive: [9] 104 % of control | [10] 100 % of control | [11] 104 % of control | dose: 6.25 mg/kg/injection, schedule: Q01DX005 (ip), vehicle: saline with Tween-80 109 % of control | dose: 12.5 mg/kg/injection, schedule: Q01DX005 (ip), vehicle: saline with Tween-80 112 % of control

O=P(C/C=C/CO)(c1ccccc1)c1ccccc1
inactive: [12] 98 % of control | [13] 98 % of control | [14] 103 % of control

CC1(C)CC(OP(=O)(OC2CC(C)(C)N(O)C(C)(C)C2)OC2CC(C)(C)N(O)C(C)(C)C2)CC(C)(C)N1O
inactive: dose: 100.0 mg/kg/injection, schedule: Q04DX002 (ip), vehicle: Klucel (hydroxypropylcellulose) (HPC) 92 % of control | dose: 200.0 mg/kg/injection, schedule: Q04DX002 (ip), vehicle: Klucel (hydroxypropylcellulose) (HPC) 99 % of control | dose: 400.0 mg/kg/injection, schedule: Q04DX002 (ip), vehicle: Klucel (hydroxypropylcellulose) (HPC) 104 % of control

O=C(OCCOCCO)c1ccccc1-c1c2cc(I)c(=O)c(I)c-2oc2c(I)c(O)c(I)cc12
inactive: dose: 60.0 mg/kg/injection, schedule: Q01DX005 (ip), vehicle: saline 94 % of control | dose: 120.0 mg/kg/injection, schedule: Q01DX005 (ip), vehicle: saline 91 % of control | dose: 240.0 mg/kg/injection, schedule: Q01DX005 (ip), vehicle: saline 92 % of control

COC(=O)C1=C(C)NC(C)=C(C(=O)OC)C1c1ccc(Cl)c([N+](=O)[O-])c1
inactive: [12] 99 % of control | [13] 96 % of control | [14] 92 % of control

CC(=O)ONC(=O)CSc1nn2cc(-c3ccccc3)nc2s1
inactive: [12] 103 % of control | [13] 97 % of control | [14] 95 % of control

C[As](C)SCC(NC(=O)CCC(N)C(=O)O)C(=O)NCC(=O)O (stereo unspecified)
inactive: dose: 12.5 mg/kg/injection, schedule: Q01DX009 (ip), vehicle: saline 104 % of control | dose: 25.0 mg/kg/injection, schedule: Q01DX009 (ip), vehicle: saline 109 % of control | [15] 97 % of control

COC(=O)/C=C(\Br)C(=O)OC
inactive: dose: 1.56 mg/kg/injection, schedule: Q01DX009 (ip), vehicle: saline with Tween-80 106 % of control | dose: 3.12 mg/kg/injection, schedule: Q01DX009 (ip), vehicle: saline with Tween-80 98 % of control | dose: 6.25 mg/kg/injection, schedule: Q01DX009 (ip), vehicle: saline with Tween-80 101 % of control

Cc1nc2ccncn2n1
inactive: [4] 99 % of control | [5] 95 % of control | [6] 93 % of control

O=[N+]([O-])C(Br)(Br)S(=O)(=O)c1ccccc1
inactive: [12] 97 % of control | [13] 106 % of control

C=CC1(C)N=C1N(C)C (stereo unspecified)
inactive: dose: 50.0 mg/kg/injection, schedule: Q01DX009 (ip), vehicle: saline 105 % of control | dose: 100.0 mg/kg/injection, schedule: Q01DX009 (ip), vehicle: saline 97 % of control | [15] 96 % of control

O=C(NN(Cn1c(=S)sc2ccccc21)Cn1c(=S)sc2ccccc21)c1ccccc1O
inactive: [16] 89 % of control | [17] 91 % of control | dose: 200.0 mg/kg/injection, schedule: Q01DX005 (ip), vehicle: Klucel (hydroxypropylcellulose) (HPC) 98 % of control

Cc1nc2nc(Cl)c(Cl)nc2[nH]1
inactive: dose: 25.0 mg/kg/injection, schedule: Q01DX009 (ip), vehicle: saline with Tween-80 100 % of control | [7] 104 % of control | [8] 104 % of control

COc1ccc2c(c1)CCC(Cc1ccc(Cl)cc1)C2c1ccc(OCCN2CCCC2)cc1 (stereo unspecified)
inactive: dose: 6.25 mg/kg/injection, schedule: Q01DX005 (ip), vehicle: suspension in saline 100 % of control | dose: 12.5 mg/kg/injection, schedule: Q01DX005 (ip), vehicle: suspension in saline 98 % of control | dose: 25.0 mg/kg/injection, schedule: Q01DX005 (ip), vehicle: suspension in saline 98 % of control | dose: 50.0 mg/kg/injection, schedule: Q01DX005 (ip), vehicle: suspension in saline 100 % of control

Cc1cc[c]([Sn]([Cl])([O][Sn]([Cl])([c]2ccc(C)cc2)[c]2ccc(C)cc2)[c]2ccc(C)cc2)cc1
inactive: [9] 105 % of control | [10] 96 % of control | dose: 3.12 mg/kg/injection, schedule: Q01DX005 (ip), vehicle: saline 115 % of control | [11] 94 % of control | dose: 6.25 mg/kg/injection, schedule: Q01DX005 (ip), vehicle: saline 118 % of control | dose: 12.5 mg/kg/injection, schedule: Q01DX005 (ip), vehicle: Klucel (hydroxypropylcellulose) (HPC) 99 % of control

O=c1[nH]nc(-c2ccccc2)c2nc3ccccc3n12
inactive: dose: 60.0 mg/kg/injection, schedule: Q01DX005 (ip), vehicle: Klucel (hydroxypropylcellulose) (HPC) 88 % of control | dose: 120.0 mg/kg/injection, schedule: Q01DX005 (ip), vehicle: Klucel (hydroxypropylcellulose) (HPC) 87 % of control | dose: 240.0 mg/kg/injection, schedule: Q01DX005 (ip), vehicle: Klucel (hydroxypropylcellulose) (HPC) 88 % of control

Cc1ccc(C2(c3ccc(C)cc3)CCCCCC2=O)cc1
inactive: dose: 25.0 mg/kg/injection, schedule: Q01DX005 (ip), vehicle: Klucel (hydroxypropylcellulose) (HPC) 87 % of control | [16] 90 % of control | [17] 97 % of control
